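Interpolation was linear, between the two tested concentrations surrounding the appropriate level; five concentrations were tested over 48 hours in 96-well plates. At the GI50, growth is halved.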 The source made the active and inactive calls. No stated cut-off is given here; in the data, active = GI50 up to about 1.1 µM and inactive = higher.

The source of these data is ChEMBL document CHEMBL1201862, “PubChem BioAssay data set” (2004).

What all share (test): DTP human tumour cell line panel, 48 h
Experiment [1] relates to OVCAR-8.
Experiment [2] has as its system LOX IMVI.
The subject of experiment [3] is SR.
Experiment [4] concerns Hs-578T.
Experiment [5] has as its system HOP-62.
For experiment [6], the system named is K562.
For experiment [7], the system named is A498.
In experiment [8] the test system is HCC 2998.
Experiment [9] relates to CAKI-1.
In experiment [10] the test system is MDA-N.
Experiment [11] has as its system SF-539.
The subject of experiment [12] is OVCAR-3.
Experiment [13] has as its system CCRF-CEM.
Experiment [14] concerns NCI/ADR-RES.
Experiment [15] relates to SK-MEL-28.
Experiment [16] has as its system SNB-75.
Experiment [17] has as its system MDA-MB-231.
The test system of experiment [18] is 786-0.
Experiment [19] relates to HL-60.
Experiment [20] has as its system SN12C.

As a reminder, the GI50 is the concentration at which growth is held to half of that of the control. In the case of `COC(=O)c1ccc(O)c2nc3c(C=O)c(O)cc(O)c3nc12` [LOMOFUNGIN], the GI50 was 43.9 nM (active) in [1]; 269 nM (active) in experiment [2]; 10600 nM (inactive) in experiment [3]; 1210 nM (inactive) in experiment [4]; 1360 nM (inactive) in experiment [5]; 84.7 nM (active) in experiment [6]. For the same molecule, the GI50 is 1220 nM (inactive) in [7]; 4930 nM (inactive) in [8]; 345 nM (active) in experiment [9]; 1670 nM (inactive) in experiment [10]; 58.5 nM (active) in experiment [11]; 4650 nM (inactive) in [12]. Moreover, the 50% growth inhibitory concentration (GI50) in experiment [13] is 259 nM (active); in [14], 99.8 nM (active); in [15] it was 1930 nM (inactive); in experiment [16] it was 1780 nM (inactive); in [17], 3170 nM (inactive); in experiment [18] it was 1730 nM (inactive). Further, the figures for the GI50 in experiment [19] and in experiment [20] were 293 nM (active) and 499 nM (active), respectively.
